The pEC50 is the EC50 on a negative log10 scale, so that one unit is a factor of ten. Broadly, the pKi is the negative decadic logarithm of the Ki, by convention in mol/L.

SMILES strings stand for the structures. pEC50, pKi: −log10 of the molar value. Active and inactive are the calls of the source. The rule behind the calls is not given here. Where a SMILES comes first, the peptide text is derived from it. Bridges are numbered along the chain shown (N, C = ends). Roman numbers before positions name the chains, in order. [ ]: non-standard residue; d: D form. 1Nal = N[C@@H](Cc1cccc2ccccc12)C(=O)O; 2Nal = N[C@@H](Cc1ccc2ccccc2c1)C(=O)O; Agb = N=C(N)NCC[C@H](N)C(=O)O

In assay [1] the target is T1, Relaxin-3 receptor 1 (Homo sapiens) (UniProt Q9NSD7).
T1 sequence (whole entry): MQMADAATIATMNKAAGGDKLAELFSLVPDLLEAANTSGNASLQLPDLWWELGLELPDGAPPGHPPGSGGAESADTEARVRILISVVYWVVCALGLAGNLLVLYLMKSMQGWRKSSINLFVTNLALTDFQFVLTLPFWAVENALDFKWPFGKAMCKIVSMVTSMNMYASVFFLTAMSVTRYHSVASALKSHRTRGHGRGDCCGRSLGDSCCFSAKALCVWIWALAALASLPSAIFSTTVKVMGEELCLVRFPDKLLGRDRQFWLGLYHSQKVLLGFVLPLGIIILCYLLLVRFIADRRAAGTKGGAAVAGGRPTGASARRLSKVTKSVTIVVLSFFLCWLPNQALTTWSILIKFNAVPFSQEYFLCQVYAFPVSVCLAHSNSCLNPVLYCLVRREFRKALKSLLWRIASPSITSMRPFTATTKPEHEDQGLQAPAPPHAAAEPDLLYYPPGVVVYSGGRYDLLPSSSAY
Kind of assay: (§1) Agonist activity at RXFP3 (unknown origin) expressed in CHO cells co-transfected with pCRE-galactosidase reporter plasmid assessed as inhibition of forskolin-induced cAMP accumulation incubated for 6 hrs by reporter gene assay. In kind it is functional, cell-based.

For assay [2], the target named is T2, Relaxin-3 receptor 2 (Homo sapiens, UniProt Q8TDU9). Kind of assay: Agonist activity at RXFP4 (unknown origin) expressed in CHO cells co-transfected with pCRE-galactosidase reporter plasmid assessed as inhibition of forskolin-induced cAMP accumulation incubated for 6 hrs by reporter gene assay. In kind it is functional, cell-based. To be noted: for pEC50: read-out: EC50; for EC50: read-out: pEC50 (converted).

The target of assay [3] is T2, Relaxin-3 receptor 2. Kind of assay: Binding affinity to LgBiT-tagged RXFP4 (unknown origin) expressed in HEK cells assessed as inhibition constant incubated for 1 hr by NanoBiT assay. In kind it is cell-based.
Assay [4] in a line: Selectivity index, ratio of Ki for binding affinity to SmBit-tagged RXFP3 (unknown origin) expressed in HEK cells assessed as inhibition constant to Ki for binding affinity to LgBiT-tagged RXFP4 (unknown origin) expressed in HEK cells assessed as inhibition constant. In kind it is cell-based.
Assay [5] concerns the target T3, Relaxin-3 receptor 1 (Homo sapiens, UniProt Q9NSD7).
T3 sequence (Q9NSD7 whole entry): T1 sequence (whole entry)
As to the kind of experiment: Binding affinity to SmBit-tagged RXFP3 (unknown origin) expressed in HEK cells assessed as inhibition constant incubated for 1 hr by NanoBiT assay. In kind it is cell-based. The following applies: read-out: Ki.

Assay [6] concerns the target T3, Relaxin-3 receptor 1. The description is as §1. In kind it is functional, cell-based. The following applies: for pEC50: read-out: EC50.
The target in assay [7] is T2, Relaxin-3 receptor 2. Kind of assay: Agonist activity at RXFP4 in HEK293T cells assessed as beta-arrestin2 recruitment pretreated with coelenterazine for 10 mins followed by compound addition by BRET assay. In kind it is functional, cell-based.

T2 sequence (Q8TDU9 whole entry): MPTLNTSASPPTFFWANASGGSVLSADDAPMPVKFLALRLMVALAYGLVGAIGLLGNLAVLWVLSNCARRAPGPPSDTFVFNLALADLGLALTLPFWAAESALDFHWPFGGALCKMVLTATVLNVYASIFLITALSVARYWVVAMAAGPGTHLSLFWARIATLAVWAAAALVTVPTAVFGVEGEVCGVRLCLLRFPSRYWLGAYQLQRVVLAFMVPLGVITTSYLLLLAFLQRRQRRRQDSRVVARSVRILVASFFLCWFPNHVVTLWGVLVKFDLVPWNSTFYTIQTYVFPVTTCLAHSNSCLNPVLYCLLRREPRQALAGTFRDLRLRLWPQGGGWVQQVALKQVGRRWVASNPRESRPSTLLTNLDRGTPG

Regarding `CC[C@H](C)[C@@H]1NC(=O)[C@H](Cc2ccc(O)cc2)NC(=O)[C@H]([C@@H](C)CC)NC(=O)[C@H](C(C)C)NC(=O)[C@H]([C@@H](C)O)NC(=O)[C@H](CCCNC(=N)N)NC(=O)[C@H]([C@@H](C)CC)NC(=O)[C@H](Cc2ccc(O)cc2)NC(=O)[C@H](CCC(=O)O)NC(=O)[C@H](CC(C)C)NC(=O)CNC(=O)[C@@H](N)CSSC[C@H](N)C(=O)N[C@@H]([C@@H](C)O)C(=O)N[C@@H](CC(=O)O)C(=O)NCC(=O)N[C@@H](CS)C(=O)N[C@H](CO)C(=O)N[C@@H](CCSC)C(=O)N[C@@H](CCCCN)C(=O)N[C@@H](CC(=O)O)C(=O)N[C@@H](CC(C)C)C(=O)N[C@@H](CO)C(=O)N[C@@H](C)C(=O)N[C@@H](CC(C)C)C(=O)N[C@H](C(=O)O)CSSC[C@@H](C(=O)N[C@@H](C)C(=O)NCC(=O)N[C@@H](CO)C(=O)N[C@@H](CCCNC(=N)N)C(=O)N[C@@H](Cc2c[nH]c3ccccc23)C(=O)O)NC1=O`, in assay [1], the result was inactive. Also, the pEC50 on Relaxin-3 receptor 2 [2] was 7.75. The pKi at Relaxin-3 receptor 2 [3] is 7.95; at Relaxin-3 receptor 1 [5] it was 6.23. The Ratio Ki in assay [4] is 52.5.
For the compound `CC[C@H](C)[C@@H]1NC(=O)[C@H](Cc2ccc(O)cc2)NC(=O)[C@H]([C@@H](C)CC)NC(=O)[C@H](C(C)C)NC(=O)[C@H]([C@@H](C)O)NC(=O)[C@H](CCCNC(=N)N)NC(=O)[C@H]([C@@H](C)CC)NC(=O)[C@H](Cc2ccc(O)cc2)NC(=O)[C@H](CCC(=O)O)NC(=O)[C@H](CC(C)C)NC(=O)CNC(=O)[C@@H](N)CSSC[C@H](N)C(=O)N[C@@H]([C@@H](C)O)C(=O)N[C@@H](CC(=O)O)C(=O)NCC(=O)N[C@@H](CS)C(=O)N[C@H](CO)C(=O)N[C@@H](CCSC)C(=O)N[C@@H](CCCCN)C(=O)N[C@@H](CC(=O)O)C(=O)N[C@@H](CC(C)C)C(=O)N[C@@H](CO)C(=O)N[C@@H](C)C(=O)N[C@@H](CC(C)C)C(=O)N[C@H](C(=O)O)CSSC[C@@H](C(=O)NCC(=O)N[C@@H](CO)C(=O)N[C@@H](CO)C(=O)N[C@@H](CCCNC(=N)N)C(=O)N[C@@H](Cc2c[nH]c3ccccc23)C(=O)O)NC1=O`, the values for the pEC50 at Relaxin-3 receptor 1 [6] (cho) and on Relaxin-3 receptor 2 [2] were less than 5.00 and 8.11, respectively. For the same compound, the EC50 on Relaxin-3 receptor 1 [6] (read-out: pEC50 (converted)) is greater than 10000 nM. For the same compound, the pKi at Relaxin-3 receptor 2 [3] is 7.74; at Relaxin-3 receptor 1 [5], 6.37. Further, the Ratio Ki in assay [4] is 23.4.
Consider `CC[C@H](C)[C@@H]1NC(=O)[C@H](Cc2ccc(O)cc2)NC(=O)[C@H]([C@@H](C)CC)NC(=O)[C@H](C(C)C)NC(=O)[C@H]([C@@H](C)O)NC(=O)[C@H](CCCNC(=N)N)NC(=O)[C@H]([C@@H](C)CC)NC(=O)[C@H](Cc2ccc(O)cc2)NC(=O)[C@H](CCC(=O)O)NC(=O)[C@H](CC(C)C)NC(=O)CNC(=O)[C@@H](N)CSSC[C@H](N)C(=O)N[C@@H]([C@@H](C)O)C(=O)N[C@@H](CC(=O)O)C(=O)NCC(=O)N[C@@H](CS)C(=O)N[C@H](CO)C(=O)N[C@@H](CCSC)C(=O)N[C@@H](CCCCN)C(=O)N[C@@H](CC(=O)O)C(=O)N[C@@H](CC(C)C)C(=O)N[C@@H](CO)C(=O)N[C@@H](C)C(=O)N[C@@H](CC(C)C)C(=O)N[C@H](C(=O)O)CSSC[C@@H](C(=O)NCC(=O)NCC(=O)N[C@@H](CO)C(=O)N[C@@H](CCCNC(=N)N)C(=O)N[C@@H](Cc2c[nH]c3ccccc23)C(=O)O)NC1=O`, for which the pEC50 is 5.32 at Relaxin-3 receptor 1 [6], 8.93 on Relaxin-3 receptor 2 [2] and 7.65 at Relaxin-3 receptor 2 [7]. For the same compound, the pKi on Relaxin-3 receptor 2 [3] was 8.64; at Relaxin-3 receptor 1 [5] it was 6.22. Moreover, the Ratio Ki in assay [4] is 263.
As to `CC[C@H](C)[C@@H]1NC(=O)[C@H](Cc2ccc(O)cc2)NC(=O)[C@H]([C@@H](C)CC)NC(=O)[C@H](C(C)C)NC(=O)[C@H]([C@@H](C)O)NC(=O)[C@H](CCCNC(=N)N)NC(=O)[C@H]([C@@H](C)CC)NC(=O)[C@H](Cc2ccc(O)cc2)NC(=O)[C@H](CCC(=O)O)NC(=O)[C@H](CC(C)C)NC(=O)CNC(=O)[C@@H](N)CSSC[C@H](N)C(=O)N[C@@H]([C@@H](C)O)C(=O)N[C@@H](CC(=O)O)C(=O)NCC(=O)N[C@@H](CS)C(=O)N[C@H](CO)C(=O)N[C@@H](CCSC)C(=O)N[C@@H](CCCCN)C(=O)N[C@@H](CC(=O)O)C(=O)N[C@@H](CC(C)C)C(=O)N[C@@H](CO)C(=O)N[C@@H](C)C(=O)N[C@@H](CC(C)C)C(=O)N[C@H](C(=O)O)CSSC[C@@H](C(=O)NCC(=O)N[C@@H](C)C(=O)N[C@@H](CO)C(=O)N[C@@H](CCCNC(=N)N)C(=O)N[C@@H](Cc2c[nH]c3ccccc23)C(=O)O)NC1=O`, the pEC50 on Relaxin-3 receptor 1 [6] was 6.81; at Relaxin-3 receptor 2 [2], 8.78. The pKi is 8.33 at Relaxin-3 receptor 2 [3] and 7.12 at Relaxin-3 receptor 1 [5]. For the same compound, in assay [4], the Ratio Ki turned out to be 16.2.
On to `CC[C@H](C)[C@@H]1NC(=O)[C@H](Cc2ccc(O)cc2)NC(=O)[C@H]([C@@H](C)CC)NC(=O)[C@H](C(C)C)NC(=O)[C@H]([C@@H](C)O)NC(=O)[C@H](CCCNC(=N)N)NC(=O)[C@H]([C@@H](C)CC)NC(=O)[C@H](Cc2ccc(O)cc2)NC(=O)[C@H](CCC(=O)O)NC(=O)[C@H](CC(C)C)NC(=O)CNC(=O)[C@@H](NC(=O)[C@H](CC(C)C)NC(=O)[C@H](CCCNC(=N)N)NC(=O)[C@@H](NC(=O)[C@H](CO)NC(=O)[C@H](CCC(=O)O)NC(=O)[C@@H](N)CCCCN)C(C)C)CSSC[C@H](N)C(=O)N[C@@H]([C@@H](C)O)C(=O)N[C@@H](CC(=O)O)C(=O)NCC(=O)N[C@@H](C)C(=O)N[C@@H](CO)C(=O)N[C@@H](CCSC)C(=O)N[C@@H](CCCCN)C(=O)N[C@@H](CC(=O)O)C(=O)N[C@@H](CC(C)C)C(=O)N[C@@H](CO)C(=O)N[C@@H](C)C(=O)N[C@@H](CC(C)C)C(=O)N[C@H](C(=O)O)CSSC[C@@H](C(=O)N[C@@H](C)C(=O)N[C@@H](CO)C(=O)N[C@@H](CO)C(=O)N[C@@H](CCNC(=N)N)C(=O)N[C@@H](Cc2c[nH]c3ccccc23)C(=O)O)NC1=O` (I: H-KESVRLCGLEYIRTVIYICASS[Agb]W-OH / II: H-CTDGASMKDLSALC-OH; disulfide I:7-II:1, I:19-II:14), for which, at Relaxin-3 receptor 2 [2], the pEC50 is less than 4.00 and the EC50 was greater than 10000 nM. For the same compound, the pKi at Relaxin-3 receptor 2 [3] is 7.85.
On to `CC[C@H](C)[C@@H]1NC(=O)[C@H](Cc2ccc(O)cc2)NC(=O)[C@H]([C@@H](C)CC)NC(=O)[C@H](C(C)C)NC(=O)[C@H]([C@@H](C)O)NC(=O)[C@H](CCCNC(=N)N)NC(=O)[C@H]([C@@H](C)CC)NC(=O)[C@H](Cc2ccc(O)cc2)NC(=O)[C@H](CCC(=O)O)NC(=O)[C@H](CC(C)C)NC(=O)CNC(=O)[C@@H](NC(=O)[C@H](CC(C)C)NC(=O)[C@H](CCCNC(=N)N)NC(=O)[C@@H](NC(=O)[C@H](CO)NC(=O)[C@H](CCC(=O)O)NC(=O)[C@@H](N)CCCCN)C(C)C)CSSC[C@H](N)C(=O)N[C@@H]([C@@H](C)O)C(=O)N[C@@H](CC(=O)O)C(=O)NCC(=O)N[C@@H](C)C(=O)N[C@@H](CO)C(=O)N[C@@H](CCSC)C(=O)N[C@@H](CCCCN)C(=O)N[C@@H](CC(=O)O)C(=O)N[C@@H](CC(C)C)C(=O)N[C@@H](CO)C(=O)N[C@@H](C)C(=O)N[C@@H](CC(C)C)C(=O)N[C@H](C(=O)O)CSSC[C@@H](C(=O)N[C@@H](C)C(=O)N[C@@H](CO)C(=O)N[C@@H](CO)C(=O)N[C@@H](CCNC(=N)N)C(=O)N[C@@H](Cc2ccc3ccccc3c2)C(=O)O)NC1=O` (I: H-KESVRLCGLEYIRTVIYICASS[Agb][2Nal]-OH / II: H-CTDGASMKDLSALC-OH; disulfide I:7-II:1, I:19-II:14), for which, on Relaxin-3 receptor 2 [2], the pEC50 is less than 4.00 and the EC50 is greater than 10000 nM. Also, the pKi on Relaxin-3 receptor 2 [3] was 8.46. The outcome on Relaxin-3 receptor 2 [7] was inactive.
Turning to `CC[C@H](C)[C@@H]1NC(=O)[C@H](Cc2ccc(O)cc2)NC(=O)[C@H]([C@@H](C)CC)NC(=O)[C@H](C(C)C)NC(=O)[C@H]([C@@H](C)O)NC(=O)[C@H](CCCNC(=N)N)NC(=O)[C@H]([C@@H](C)CC)NC(=O)[C@H](Cc2ccc(O)cc2)NC(=O)[C@H](CCC(=O)O)NC(=O)[C@H](CC(C)C)NC(=O)CNC(=O)[C@@H](N)CSSC[C@H](N)C(=O)N[C@@H]([C@@H](C)O)C(=O)N[C@@H](CC(=O)O)C(=O)NCC(=O)N[C@@H](C)C(=O)N[C@@H](CO)C(=O)N[C@@H](CCSC)C(=O)N[C@@H](CCCCN)C(=O)N[C@@H](CC(=O)O)C(=O)N[C@@H](CC(C)C)C(=O)N[C@@H](CO)C(=O)N[C@@H](C)C(=O)N[C@@H](CC(C)C)C(=O)N[C@H](C(=O)O)CSSC[C@@H](C(=O)N[C@@H](C)C(=O)N[C@@H](CO)C(=O)N[C@@H](CO)C(=O)N[C@@H](CCNC(=N)N)C(=O)N[C@@H](Cc2cccc3ccccc23)C(=O)O)NC1=O` (I: H-CGLEYIRTVIYICASS[Agb][1Nal]-OH / II: H-CTDGASMKDLSALC-OH; disulfide I:1-II:1, I:13-II:14), at Relaxin-3 receptor 2 [2], the result was inactive and the pEC50 is 8.04. The pKi on Relaxin-3 receptor 2 [3] is 8.51.
